Our source for the DC50, Dmax and IC50 values is patent publication US20260167622A1, “PAN-KRAS DEGRADING AGENT, AND PREPARATION METHOD THEREFOR AND USE THEREOF” (LEADINGTAC PHARMACEUTICAL (SHAOXING) CO., LTD., priority 2022, published 2026).

In general, DC50 refers to the concentration at which degradation of the target reaches its halfway point. A lower DC50 goes with a more potent degrader. One may read the Dmax as the largest share of the target that was removed. Lower therefore signals shallow degradation. One may read the IC50 as the concentration at which inhibition is half-maximal. Low values mean inhibition by little substance, high ones a need for much substance.

The target in test [1] is T1, KRAS G12C protein in NCI-H358 cells (Homo sapiens, UniProt P01116, G12C).
T1 construct: endogenous in cells; host or cells: NCI-H358
T1 sequence (P01116 1-188 isoform P01116-2 G12C): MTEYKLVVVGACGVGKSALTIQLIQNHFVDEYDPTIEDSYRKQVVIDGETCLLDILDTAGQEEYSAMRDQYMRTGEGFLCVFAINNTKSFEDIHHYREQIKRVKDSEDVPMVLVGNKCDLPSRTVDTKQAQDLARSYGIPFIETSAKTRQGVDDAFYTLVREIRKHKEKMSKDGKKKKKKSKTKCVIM
Kind of test: KRAS degradation assay (Western Blot) in NCI-H358 cells. In kind it is cell-based. Particulars: 24 h. The text has this: (§1) Test Example 5: KRAS G12C, KRAS G12D, KRAS G12V, KRAS G13D, and KRAS WT (Expanded) Degradation Assays
(§2) The degradation effect of the compounds on KRAS was investigated on KRAS G12C mutant human non-small cell lung cancer cell NCI-H358, KRAS G12D mutant human metastatic pancreatic cancer cell AsPc-1, KRAS G12D mutant human lung cancer cell A427, KRAS G12V mutant human colorectal cancer cell SW620, KRAS G12V mutant human lung cancer cell SW900, KRAS G13D mutant human colorectal cancer epithelial cell DLD-1, and KRAS WT human gastric cancer cell MKN-1. The specific procedures were as follows: 0.95 mL of cells were seeded into each well of a 24-well cell culture plate to achieve a cell density of 5×10^5 cells/well; and the cell plate was incubated in an incubator at 37° C. with 5% CO2 overnight. Then 50 μL of the compound solution after dilution was added to each of the wells with the corresponding cells, so that the final concentration of the compound was in a range of 0.03-3000 nM. The final concentration of DMSO was 0.25%. After the compounds were added, the cell plate was incubated in an incubator at 37° C. with 5% CO2 for 24 h. The culture medium in the 24-well cell culture plate was then removed, and the plate was washed twice with 1×PBS (KeyGEN). 120 μL of RIPA (strong) lysis buffer (Beyotime) (supplemented with 1 mM phenylmethylsulfonyl fluoride, a protease inhibitor mixture (Beyotime), and a protease phosphatase inhibitor mixture (Beyotime)) was added to lyse adherent SW900 cells at the bottom of the cell culture plate. After the plate was left to stand on ice for 30 min, the protein lysate in each well was transferred to a 1.5 mL centrifuge tube and centrifuged at 15000 g for 20 min at 4° C. The cell lysate supernatants after centrifugation were cryopreserved in a refrigerator at −80° C. for later use.
(§3) After the samples of the cell lysate supernatants that had been prepared were thawed from the refrigerator at −80° C., the total protein concentrations of the cell lysates were determined using a BCA protein quantification kit (Tiangen). The total protein concentrations of the samples were then adjusted to 0.5 μg/μL with PBS and 5×SDS-PAGE protein loading buffer (Beyotime), and the samples were incubated in a water bath at 100° C. for 15 min. The samples were then incubated in an ice bath for 5 min and centrifuged at 14000 g for 1 min at 4° C., and the supernatants were mixed well as loading samples for the Western Blot assay. The samples were loaded into wells of a 10% precast gel (KeyGEN) with a loading volume of 10 μL (total protein: 5 μg), a sufficient Tris-MOPS-SDS running buffer (Adamas) was added, and then electrophoresis was performed at a constant voltage of 120 V for 55 min. After the electrophoresis, the proteins on the gel were transferred to PVDF membranes at a constant current of 250 mA for 55 min. After the membrane transfer, the PVDF membranes were incubated in 1× Quick Block blocking buffer (Beyotime)at room temperature for 30 min. After the blocking, the PVDF membranes were separately incubated at 4° C. overnight with the KRAS antibody (Abcam) diluted in a ratio of 1:1000 and the β-actin antibody (Abcam) diluted in a ratio of 1:2000 in 5% BSA as the diluent, and then washed with 1×TBST buffer (2.4 g of Tris, 8.8 g of NaCl, 1.5 mL of Tween 20, with pH adjusted to 7.4, with the volume brought to 1 L) 3 times for 10 min/time. The membranes were incubated with a secondary antibody (Abcam) diluted in 5% BSA at room temperature for 2 h, and then washed with 1×TBST buffer 3 times for 10 min/time. Finally, the membranes were incubated with Clarity Western ECL Substrate (BIO-RAD) for 5 min for luminescence and color development, and a ChemiScope 6200 Touch chemiluminescence imaging system (Clinx) was used for color development and protein mapping. Gray value analysis of the protein maps was performed using the chemiluminescence analysis software (Clinx). […]
A general note: A western blot detects proteins with antibodies after separation by electrophoresis.

For test [2], the target named is T2, KRAS G12D protein in A427 cells (Homo sapiens, UniProt P01116, G12D).
T2 construct: endogenous in cells; host or cells: A427
T2 sequence (P01116 1-188 isoform P01116-2 G12D): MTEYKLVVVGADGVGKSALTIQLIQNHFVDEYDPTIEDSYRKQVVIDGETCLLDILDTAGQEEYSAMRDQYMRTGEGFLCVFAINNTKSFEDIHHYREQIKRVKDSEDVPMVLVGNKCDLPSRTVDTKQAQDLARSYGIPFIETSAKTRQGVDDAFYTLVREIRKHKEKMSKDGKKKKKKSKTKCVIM
Kind of test: KRAS degradation assay (Western Blot) in A427 cells. The format is cell-based. Particulars: for DC50: 24 h; for Dmax: A-427, 24 h.
Description: as §1, §2, §3

For test [3], the target named is T3, KRAS G12V protein in SW900 cells (Homo sapiens, UniProt P01116, G12V).
T3 construct: endogenous in cells; host or cells: SW900
T3 sequence (P01116 1-188 isoform P01116-2 G12V): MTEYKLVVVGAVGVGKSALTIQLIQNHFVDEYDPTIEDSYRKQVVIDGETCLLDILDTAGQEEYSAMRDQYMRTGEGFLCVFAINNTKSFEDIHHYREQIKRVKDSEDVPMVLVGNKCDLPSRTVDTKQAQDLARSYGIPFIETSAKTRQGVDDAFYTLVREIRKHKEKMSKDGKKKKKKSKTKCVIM
The test can be described thus: KRAS degradation assay (Western Blot) in SW900 cells. The conditions noted are these: 24 h. In kind it is cell-based. The method, boiled down:
(§4)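 5×10^5 cells/well; cpd 0.03–3000 nM final, 0.25% DMSO, 24 h, 37 °C/5% CO2. RIPA lysis, 5 µg protein/lane, anti-KRAS WB, β-actin loading ref. DC50/Dmax by nonlinear fit.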

Test [4] concerns the target T4, KRAS G13D protein in DLD-1 cells (Homo sapiens, UniProt P01116, G13D).
T4 construct: endogenous in cells; host or cells: DLD-1
The test can be described thus: KRAS degradation assay (Western Blot) in DLD-1 cells. In kind it is cell-based. The conditions noted are these: 24 h. The method, boiled down: as §4

The target in another test is T5, Human KRAS G12V (Homo sapiens, UniProt P01116, G12V).
T5 construct: purchased PerkinElmer
T5 sequence (P01116 1-188 isoform P01116-2 G12V): as above
Kind of test: KRAS-G12V/GTP binding assay (HTRF kit). The conditions noted are these: 25° C., 1 h. As for the experimental part:
Test Example 2: KRAS G12V Binding Assay
In this method, the inhibitory effects of the compounds on the binding of KRAS G12V to GTP were assayed by a homogeneous time-resolved fluorescence (HTRF) technique using a KRAS-G12V/GTP binding assay kit (PerkinElmer).
The experimental procedures were as follows (refer to the kit instructions for detailed test methods): the compounds of the present disclosure were each firstly dissolved in DMSO at a concentration of 20 mM, and then diluted in an equal gradient with a buffer in the kit, so that the final concentrations of the test compounds in the reaction system were in a range of 0.02-5000 nM, and the final concentration of DMSO was 0.5%. 5 μL of each compound was incubated with 5 μL of 1× Human KRAS G12V 6His-tagged (PerkinElmer), 5 µL of 1×6His Eu Cryptate Antibody (PerkinElmer), and 5 μL of 1×GTP Red reagent (PerkinElmer) in a 384-well plate (Greiner) at 25° C. for 1 h. After the incubation was completed, the fluorescence intensity of each well was measured at the excitation wavelength of 337 nm and the emission wavelengths of 620 nm and 665 nm with an EnVision microplate reader (PerkinElmer) in the HTRF mode, and Ratio values were calculated using the formula: Ratio=(665 nm/620 nm)×10^4. The inhibition rates of the compounds at each concentration were calculated by comparing the fluorescence intensity ratio with that of the control group. Then non-linear curve fittings for logarithmic concentration-inhibition rate were performed using the GraphPad Prism 8 analysis software, and the IC50 values of the compounds were obtained (Table 3).
A general note: In TR-FRET formats the signal depends on donor and acceptor labels being close together.

Test [5] has as its target T6, KRAS G12D protein in AsPc-1 cells (Homo sapiens, UniProt P01116, G12D).
T6 construct: endogenous in cells; host or cells: AsPc-1
The test can be described thus: KRAS degradation assay (Western Blot) in AsPc-1 cells. In kind it is cell-based. The conditions noted are these: for DC50: 24 h; for Dmax: ASPC1, 24 h. The method, boiled down: as §4

Structures are written as SMILES.

T4 sequence (P01116 1-188 isoform P01116-2 G13D): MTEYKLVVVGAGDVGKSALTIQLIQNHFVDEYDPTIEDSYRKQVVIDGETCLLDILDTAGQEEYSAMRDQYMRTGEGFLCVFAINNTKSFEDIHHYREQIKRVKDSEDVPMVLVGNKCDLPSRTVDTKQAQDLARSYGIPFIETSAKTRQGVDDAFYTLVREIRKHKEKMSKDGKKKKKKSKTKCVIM
T6 sequence (P01116 1-188 isoform P01116-2 G12D): as the sequence (P01116 1-188 isoform P01116-2 G12D) above

As to `C#Cc1c(F)ccc2cc(O)cc(-c3ncc4c(N5CCC[C@@](C)(O)C5)nc(OCC5(CN6CCN(CC7CCC8(CC7)CCN(C(=O)c7ccc(Cl)c(N9CCC(=O)NC9=O)c7)CC8)CC6)CC5)nc4c3F)c12` [Example 1, (R)-1-(2-chloro-5-(9-((4-((1-(((7-(8-ethynyl-7-fluoro-3-hydroxynaphthalen-1-yl)-8-fluoro-4-(3-hydroxy-3-methylpiperidin-1-yl)pyrido[4,3-d]pyrimidin-2-yl)oxy)methyl)cyclopropyl)methyl)piperazin-1-yl)methyl)-3-azaspiro[5.5]undecane-3-carbonyl)phenyl)dihydropyrimidine-2,4(1H,3H)-dione], the DC50 in test [1], in test [2], in test [3], in test [4] and in test [5] was not above 50 nM throughout. In addition, the Dmax in test [1], in test [2], in test [3], in test [4] and in test [5] was 80 to 100% in each case. Further, the IC50 on Human KRAS G12V was not above 500 nM.
Consider `CCc1c(F)ccc2cc(O)cc(-c3ncc4c(N5CCC[C@@](C)(O)C5)nc(OCC5(CN6CCN(CC7CCC8(CC7)CCN(C(=O)c7ccc(Cl)c(N9CCC(=O)NC9=O)c7)CC8)CC6)CC5)nc4c3F)c12` [Example 2, (R)-1-(2-chloro-5-(9-((4-((1-(((7-(8-ethyl-7-fluoro-3-hydroxynaphthalen-1-yl)-8-fluoro-4-(3-hydroxy-3-methylpiperidin-1-yl)pyrido[4,3-d]pyrimidin-2-yl)oxy)methyl)cyclopropyl)methyl)piperazin-1-yl)methyl)-3-azaspiro[5.5]undecane-3-carbonyl)phenyl)dihydropyrimidine-2,4(1H,3H)-dione], for which, in test [3], the DC50 was not above 50 nM and the Dmax was 80 to 100%. Moreover, the IC50 on Human KRAS G12V was not above 500 nM.
Consider `CCc1cccc2cc(O)cc(-c3ncc4c(N5CCC[C@@](C)(O)C5)nc(OCC5(CN6CCN(CC7CCC8(CC7)CCN(C(=O)c7ccc(Cl)c(N9CCC(=O)NC9=O)c7)CC8)CC6)CC5)nc4c3F)c12` [Example 3, (R)-1-(2-chloro-5-(9-((4-((1-(((7-(8-ethyl-3-hydroxynaphthalen-1-yl)-8-fluoro-4-(3-hydroxy-3-methylpiperidin-1-yl)pyrido[4,3-d]pyrimidin-2-yl)oxy)methyl)cyclopropyl)methyl)piperazin-1-yl)methyl)-3-azaspiro[5.5]undecane-3-carbonyl)phenyl)dihydropyrimidine-2,4(1H,3H)-dione], for which the DC50 in test [1], in test [2], in test [3], in test [4] and in test [5] was not above 50 nM each time. Moreover, the Dmax in test [1], in test [2], in test [3], in test [4] and in test [5] was 80 to 100% in each case. This molecule yielded an IC50 at Human KRAS G12V not above 500 nM.
As for `C#Cc1c(F)ccc2cc(O)cc(-c3ncc4c(N5CCC[C@@](C)(O)C5)nc(OCC5(CN6CCN(CC7CCC8(CC7)CCN(C(=O)c7ccc(C)c(N9CCC(=O)NC9=O)c7)CC8)CC6)CC5)nc4c3F)c12` [Example 6, (R)-1-(5-(9-((4-((1-(((7-(8-ethynyl-7-fluoro-3-hydroxynaphthalen-1-yl)-8-fluoro-4-(3-hydroxy-3-methylpiperidin-1-yl)pyrido[4,3-d]pyrimidin-2-yl)oxy)methyl)cyclopropyl)methyl)piperazin-1-yl)methyl)-3-azaspiro[5.5]undecane-3-carbonyl)-2-methylphenyl)dihydropyrimidine-2,4(1H,3H)-dione], the DC50 in test [1], in test [2], in test [3], in test [4] and in test [5] was not above 50 nM throughout. Besides, the Dmax in test [1], in test [2], in test [3], in test [4] and in test [5] was 80 to 100% in each case. Further, the IC50 at Human KRAS G12V was not above 500 nM.
As to `C#Cc1cccc2cc(O)cc(-c3ncc4c(N5CCC[C@@](C)(O)C5)nc(OCC5(CN6CCN(CC7CCC8(CC7)CCN(C(=O)c7ccc(Cl)c(N9CCC(=O)NC9=O)c7)CC8)CC6)CC5)nc4c3F)c12` [Example 11, (R)-1-(2-chloro-5-(9-((4-((1-(((7-(8-ethynyl-3-hydroxynaphthalen-1-yl)-8-fluoro-4-(3-hydroxy-3-methylpiperidin-1-yl)pyrido[4,3-d]pyrimidin-2-yl)oxy)methyl)cyclopropyl)methyl)piperazin-1-yl)methyl)-3-azaspiro[5.5]undecane-3-carbonyl)phenyl)dihydropyrimidine-2,4(1H,3H)-dione], in test [3], the DC50 was not above 50 nM and the Dmax lay within 80 to 100%. The half-maximal inhibitory concentration (IC50) on Human KRAS G12V lay in the range of 500 to 1000 nM.
